Laboratory results from article PMC10057480, “Expanding the Library of 1,2,4-Oxadiazole Derivatives: Discovery of New Farnesoid X Receptor (FXR) Antagonists/Pregnane X Receptor (PXR) Agonists” (Molecules, 2023).
Values joined by “and” are separate entries in the source; they are usually repeats but may differ in a detail not shown here. Identical values can stand only once.

Legend:
Type in all cases: cell-based
[1] = tested on: Human-CaCo2 cells stimulated with TNFα; assay: qPCR of PXR and inflammatory cytokines in TNFα-stimulated CaCo2 cells; conditions: TNFα 100 ng/mL plus compound 10 μM
Protocol: HepG2 and CaCo2 cell lines, obtained from ATCC, were routinely cultured in Eagle’s MEM and high-glucose DMEM, respectively, supplemented with 10% FBS, 1% glutamine, and penicillin/streptomycin. For in vitro experiments, HepG2 (2 × 106) cells were stimulated with 6-ECDCA at a concentration of 10 µM alone or in combination with compound 5 or 11, and CaCo2 cells were exposed to TNFα (100 ng/mL) alone or in combination with rifaximin, compound 5, or 11.
Total RNA was isolated from the HepG2 and CaCo2 cell lines using TRI reagent (Zymo Research) and Direct-zol™ RNA MicroPrep w/Zymo-Spin™ IIC Columns (Zymo Research, Irvine, CA, USA). After purification from genomic DNA using DNase I (Thermo Fisher Scientific, Waltham, MA, USA), 2 μg of RNA from each sample was reverse transcribed using Kit FastGene Scriptase Basic (Nippon Genetics, Mariaweilerstraße, Düren, Germany) in 20-μL of reaction volume, and 50 ng of cDNA was amplified in a 20-μL solution containing 200 nM of each primer and 10 μL of PowerUp™ SYBR™ Green Master Mix (Thermo Fisher Scientific, Waltham, MA, USA) using a Quantstudio 3 system (Applied Biosystems, Foster City, CA, USA). The relative mRNA expression was calculated according to the ΔCt method. The primer used were as follows (forward and reverse): hGapdh (for […]; rev […]), hBsep (for […]; rev […]), hOstα (for […]; rev […]), hNtcp (for […]; rev […]), hPxr (for GCAAGGGCTTTTTCAGGAG; rev GGGTCTTCCGGGTGATCT), hIl-8 (for […]; rev […]), hIl-1β (for […]; rev […]).

HepG2 cells = assay: Toxicity on HepG2 cells seen in the FXR transactivation assay; conditions: at 50 μM
Protocol: (§1) The antagonistic activity on FXR was investigated using HepG2 cells transfected with 100 ng of pSG5-FXR and pSG5-RXR, 200 ng of the reporter vector p(hsp27)-TK-LUC containing the FXR response element, and 100 ng of the pGL4.70 vector encoding the human Renilla gene used as a transfection control. Cells were stimulated with the agonist 6-ECDCA (10 µM) alone or in combination with compounds 2–11 after 24 h. In another experimental setting, HepG2 cells were transfected using 100 ng of pSG5-PXR, 100 ng of pSG5-RXR, and 100 ng of pGL4.70, along with the reporter vector pGL3(henance)PXRE. At 24 h post-transfection, cells were stimulated with rifaximin 10 μM (as a positive control) or compounds 2–11 (10 μM). The specificity of compounds 5 and 11 versus FXR and PXR was tested using HepG2 cells transiently transfected with 200 ng of the reporter vector p(UAS)5XTKLuc, 100 ng of a vector containing the ligand binding domain of LXRα or LXRβand 100 ng of pGL4.70, a vector encoding the human Renilla gene. At 24 h post-transfection, cells were stimulated for 18 h with GW3965 (5 μM), compounds 5 and 11 (10 μM), and the combination of GW3965 plus 5 or 11 (50 μM). Cellular lysate was assayed for luciferase and Renilla activities after 18 h using the Dual-Luciferase Reporter assay system (E1980, Promega, Madison, WI, USA). The activity of luciferase was measured using the Glomax 20/20 luminometer (Promega, Madison, WI, USA) and normalized with Renilla activities.

FXR = target: T1, FXR (Homo sapiens, UniProt Q96RI1); assay: FXR luciferase reporter transactivation assay (antagonism) on HepG2 cells; conditions: HepG2 transactivation; compounds at 50 μM; percent inhibition of transactivation set at 100%; mean ± SD, at least three experiments
T1 construct: expressed in transfected cells; host or cells: HepG2
T1 sequence (Q96RI1 1-486): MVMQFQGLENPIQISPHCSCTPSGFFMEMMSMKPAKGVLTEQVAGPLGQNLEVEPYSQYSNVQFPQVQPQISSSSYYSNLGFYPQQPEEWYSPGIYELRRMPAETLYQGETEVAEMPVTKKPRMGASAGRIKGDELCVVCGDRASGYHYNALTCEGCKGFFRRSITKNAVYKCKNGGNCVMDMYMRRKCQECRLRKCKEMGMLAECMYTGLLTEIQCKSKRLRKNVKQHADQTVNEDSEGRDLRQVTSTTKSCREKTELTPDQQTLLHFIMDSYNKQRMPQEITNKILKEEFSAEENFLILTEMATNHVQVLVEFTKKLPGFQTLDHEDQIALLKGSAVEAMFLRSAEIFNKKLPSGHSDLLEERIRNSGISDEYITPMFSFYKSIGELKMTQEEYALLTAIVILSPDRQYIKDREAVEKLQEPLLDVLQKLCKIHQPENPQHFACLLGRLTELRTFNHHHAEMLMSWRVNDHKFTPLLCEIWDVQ
Protocol: as §1, with “Cells were stimulated with the agonist 6-ECDCA (10 µM) alone or in combination with compounds 2–11 after 24 h.” left out

PXR = target: T2, PXR (Homo sapiens, UniProt O75469); assay: PXR luciferase reporter transactivation assay (agonism) on HepG2 cells; conditions: compound 10 μM, maximal transactivation compared to Rifaximin 10 μM, mean ± SD, at least three experiments
T2 construct: expressed in transfected cells; host or cells: HepG2
T2 sequence (O75469 1-434): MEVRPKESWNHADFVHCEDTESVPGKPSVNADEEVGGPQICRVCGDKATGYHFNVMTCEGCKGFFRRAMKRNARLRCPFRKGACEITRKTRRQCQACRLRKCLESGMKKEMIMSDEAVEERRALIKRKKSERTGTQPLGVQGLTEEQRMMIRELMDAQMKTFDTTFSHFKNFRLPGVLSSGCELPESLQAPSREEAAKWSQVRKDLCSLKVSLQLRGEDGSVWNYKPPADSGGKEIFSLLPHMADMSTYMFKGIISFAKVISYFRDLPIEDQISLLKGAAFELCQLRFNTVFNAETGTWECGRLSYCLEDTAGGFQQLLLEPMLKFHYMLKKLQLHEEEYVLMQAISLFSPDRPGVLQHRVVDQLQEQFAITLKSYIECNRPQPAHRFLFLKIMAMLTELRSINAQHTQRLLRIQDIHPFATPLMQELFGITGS
T2 sequence (P19793 1-462 partner): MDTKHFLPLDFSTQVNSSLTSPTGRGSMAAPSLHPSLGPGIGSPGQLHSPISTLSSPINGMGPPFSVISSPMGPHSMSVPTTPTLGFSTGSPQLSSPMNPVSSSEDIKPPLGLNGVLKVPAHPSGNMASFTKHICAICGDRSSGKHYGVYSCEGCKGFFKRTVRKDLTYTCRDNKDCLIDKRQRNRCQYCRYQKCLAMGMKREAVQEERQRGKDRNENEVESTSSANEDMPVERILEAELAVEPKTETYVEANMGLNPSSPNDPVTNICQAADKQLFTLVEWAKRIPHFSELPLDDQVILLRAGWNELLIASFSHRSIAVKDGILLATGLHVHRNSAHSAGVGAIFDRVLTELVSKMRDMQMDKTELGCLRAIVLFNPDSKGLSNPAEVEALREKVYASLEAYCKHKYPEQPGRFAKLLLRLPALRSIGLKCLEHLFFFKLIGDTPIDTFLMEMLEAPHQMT
Protocol: as §1

Row | PXR Agonism Eff (%) (PXR) | Structure (SMILES) | Effect on proinflammatory factors caused by TNFα stimulation [1] | Toxicity on HepG2 cells (HepG2 cells) | FXR Antagonism Eff (%) (FXR)
1 | 3 ± 0.2% | CCC(C)N1CCC(c2nc(-c3ccc4ccccc4c3)no2)CC1 (stereo not shown) [Compound 9, 5-(1-(Sec-butyl)piperidin-4-yl)-3-(naphthalen-2-yl)-1,2,4-oxadiazole] | – | toxic | Toxic
2 | 50% and 50 ± 7% | CC(C)N1CCC(c2nc(-c3ccc4ccccc4c3)no2)CC1 [Compound 8, 5-(1-Isopropylpiperidin-4-yl)-3-(naphthalen-2-yl)-1,2,4-oxadiazole] | – | – | –
3 | 20 ± 3% | OCc1cccc(CN2CCC(c3nc(-c4ccc5ccccc5c4)no3)CC2)c1 [Compound 10, 5-[1-(3-(Hydroxymethyl)benzyl)piperidin-4-yl]-3-(naphthalen-2-yl)-1,2,4-oxadiazole] | – | – | 66% and 66 ± 13%
4 | 68% and 68 ± 8% | CCCCN1CCC(c2nc(-c3ccc4ccccc4c3)no2)CC1 [Compound 4, 5-(1-Butylpiperidin-4-yl)-3-(naphthalen-2-yl)-1,2,4-oxadiazole] | – | – | 38 ± 5%

More lines, now with the values behind:

Row | Structure (SMILES) | PXR Agonism Eff (%) (PXR) | Effect on proinflammatory factors caused by TNFα stimulation [1] | Toxicity on HepG2 cells (HepG2 cells) | FXR Antagonism Eff (%) (FXR)
5 | CO[C@H]1/C=C/O[C@@]2(C)Oc3c(C)c(O)c4c(O)c(c5c(nc6cc(C)ccn65)c4c3C2=O)NC(=O)/C(C)=C\C=C\[C@H](C)[C@H](O)[C@@H](C)[C@@H](O)[C@@H](C)[C@H](OC(C)=O)[C@@H]1C [rifaximin, reference compound] | – | reduced changes in the production of proinflammatory factors | – | –
6 | CCN1CCC(c2nc(-c3ccc4ccccc4c3)no2)CC1 [Compound 2, 5-(1-Ethylpiperidin-4-yl)-3-(naphthalen-2-yl)-1,2,4-oxadiazole] | 2 ± 0.3% | – | toxic | Toxic
7 | CCCCCCCN1CCC(c2nc(-c3ccc4ccccc4c3)no2)CC1 [Compound 7, 5-(1-Heptylpiperidin-4-yl)-3-(naphthalen-2-yl)-1,2,4-oxadiazole] | 28 ± 3% | – | toxic | Toxic
8 | CCCN1CCC(c2nc(-c3ccc4ccccc4c3)no2)CC1 [Compound 3, 3-(Naphthalen-2-yl)-5-(1-propylpiperidin-4-yl)-1,2,4-oxadiazole] | 15 ± 0.5% | – | toxic | Toxic
9 | CCCCCCN1CCC(c2nc(-c3ccc4ccccc4c3)no2)CC1 [Compound 6, 5-(1-Hexylpiperidin-4-yl)-3-(naphthalen-2-yl)-1,2,4-oxadiazole] | 23 ± 0.7% | – | – | –
